From patent US5308843A, “Method of inhibiting mammalian topoisomerase II and malignant cell growth in mammals, with substituted (S)-3-methyl-7-oxo-2,3-dihydro-7H-pyrido[1,2,3-de][1,4 ]-benzoxazine(and-benzothiazine)-6-carboxylic acids” (Sterling Drug Inc., priority 1990, dated 1994)
Blank lines part the entries; values can stand above or below the molecule they belong to.

Legend:
human topoisomerase II = molecular target: T1, human topoisomerase II (Homo sapiens, UniProt P11388); test: Mammalian (human) topoisomerase II inhibition assay: topo II-DNA complex stabilisation; type: biochemical; conditions: concentration with activity equal to the EC50 of reference mAMSA; 20 min at 37° C.
T1 construct: Topo II was purified from late log phase suspension cultures of HeLa WIS; endogenous in cells; host or cells: HeLa WIS (late log phase suspension cultures); native enzyme purified in house
T1 sequence (P11388 whole entry): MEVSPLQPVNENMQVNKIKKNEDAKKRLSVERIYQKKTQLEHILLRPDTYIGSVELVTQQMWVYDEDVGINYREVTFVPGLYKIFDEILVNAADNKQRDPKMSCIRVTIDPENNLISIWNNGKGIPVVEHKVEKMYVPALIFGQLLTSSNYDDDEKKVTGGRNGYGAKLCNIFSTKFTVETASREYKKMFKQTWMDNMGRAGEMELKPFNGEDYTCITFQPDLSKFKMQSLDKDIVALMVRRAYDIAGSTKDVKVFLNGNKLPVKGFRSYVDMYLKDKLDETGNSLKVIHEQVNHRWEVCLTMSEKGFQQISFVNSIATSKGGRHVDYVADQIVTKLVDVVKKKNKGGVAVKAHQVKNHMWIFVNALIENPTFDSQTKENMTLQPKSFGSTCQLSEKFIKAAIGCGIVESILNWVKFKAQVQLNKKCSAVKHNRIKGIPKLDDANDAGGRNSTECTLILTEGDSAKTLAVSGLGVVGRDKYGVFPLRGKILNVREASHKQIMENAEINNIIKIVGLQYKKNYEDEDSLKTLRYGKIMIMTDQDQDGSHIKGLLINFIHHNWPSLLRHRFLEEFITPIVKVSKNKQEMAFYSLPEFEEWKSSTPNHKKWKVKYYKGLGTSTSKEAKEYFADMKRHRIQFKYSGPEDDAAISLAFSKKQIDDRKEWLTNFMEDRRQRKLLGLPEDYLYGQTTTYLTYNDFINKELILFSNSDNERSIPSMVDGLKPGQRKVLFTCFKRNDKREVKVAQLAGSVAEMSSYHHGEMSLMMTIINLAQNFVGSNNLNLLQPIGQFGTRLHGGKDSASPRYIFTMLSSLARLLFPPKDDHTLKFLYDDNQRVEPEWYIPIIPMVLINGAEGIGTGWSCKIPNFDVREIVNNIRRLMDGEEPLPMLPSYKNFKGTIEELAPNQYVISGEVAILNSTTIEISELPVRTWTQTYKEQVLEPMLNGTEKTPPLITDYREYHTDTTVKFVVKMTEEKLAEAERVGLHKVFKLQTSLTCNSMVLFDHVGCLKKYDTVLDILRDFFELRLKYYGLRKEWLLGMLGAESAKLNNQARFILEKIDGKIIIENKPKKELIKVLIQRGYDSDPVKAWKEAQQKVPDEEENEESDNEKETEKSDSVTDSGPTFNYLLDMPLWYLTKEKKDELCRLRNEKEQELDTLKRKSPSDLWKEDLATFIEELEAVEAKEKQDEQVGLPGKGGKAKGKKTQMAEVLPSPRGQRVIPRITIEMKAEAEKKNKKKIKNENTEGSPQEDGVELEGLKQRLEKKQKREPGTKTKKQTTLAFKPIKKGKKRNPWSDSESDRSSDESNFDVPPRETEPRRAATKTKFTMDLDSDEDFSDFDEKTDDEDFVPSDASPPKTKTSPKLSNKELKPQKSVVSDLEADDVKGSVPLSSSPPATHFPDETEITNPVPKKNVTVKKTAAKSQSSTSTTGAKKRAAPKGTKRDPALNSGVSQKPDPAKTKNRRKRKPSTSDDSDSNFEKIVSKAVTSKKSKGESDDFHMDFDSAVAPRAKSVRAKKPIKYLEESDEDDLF
From the text: Mammalian Topoisomerase II Inhibition Assay Procedure
The inhibition of human topoisomerase II (hereafter topo II) was quantitated by a procedure adapted from that described by Trask et al., EMBO J., 3, 671-676 (1984). The assay quantitates the amount of topo II covalently complexed by DNA at equilibrium during a topo II reaction. This assay determines the potential of a compound to stabilize this complex, which potential is closely related to the cytotoxicity of the compound.
Topo II was purified from late log phase suspension cultures of HeLa WIS by an adaption of the method described by Per et al., Mol. Pharmacol., 32, 17-25 (1987).
Assays (in duplicate) were assembled at 4° C. Assay mix (25 μl) was distributed in Beckman (No. 265270) 1.5 ml microtitre tubes followed by the addition of 5 μl test compound to yield the final concentrations of assay components:
4 ng 3' end labeled (32p) pBR322 DNA (10^7 DPM/μg)
The assay mix including the test compound was incubated for 20 minutes at 37° C. The reaction was terminated at 37° C. by the addition of 3 μl 10% SDS followed by the addition of 266 μl 10 mM Tris-Cl pH 7.5, 20 μg/ml BSA, 20 μg/ml calf thymus DNA, 1% SDS.
A SDS/protein precipitate was formed by the addition of 28 μl 2.5M KCl followed by chilling on ice for a minimum of 10 minutes. The precipitate was collected and washed with a Brandell cell harvester on a GFB glass fiber filter membrane as follows. The contents of the assay tube were drawn up into the harvester. The tube was then rinsed 7× with 10 mM Tris-Cl pH 7.5, 1 mM EDTA and 100 mM KCl. The precipitate was washed with 1 L of a solution of 10 mM Tris-Cl pH 7.5, 1 mM EDTA, 100 mM KCl followed by 1 L of 95% ethyl alcohol and finally 0.5 L 70% of ethyl alcohol (per 48 samples in each case). After drying, CPM was determined by liquid scintillation counting with 5 ml Biofluor (NEN Research Products) or Readisafe (Beckman Instruments Inc.) cocktail.
Preparation of test compound--A stock solution (6 mg/ml) of test compound was prepared either in 0.1N sodium hydroxide or 0.2N hydrogen chloride. This solution then was diluted 1/5 into water and serially thereafter in either 0.02N sodium hydroxide or 0.04N hydrogen chloride, respectively. The stock solution and serial dilution of the test compound was stored at -20° C. prior to testing.
Screening of test compound--As an initial screen, the test compound was tested at a final concentration of 2, 20 and 200 μg/ml.
Controls--A solvent control which indicates the base level of topo II-DNA complex formed in the absence of the test compound was included in each test. A control, in which topo II was omitted, was included for each test compound at the highest drug concentration tested.
Reference agent--A dose response curve with mAMSA at 0.01, 0.08, 0.16, 0.32, 1.0 and 10 μg/ml was included in each test.
Data reduction--The EC50 (effective concentration at which 50% of the maximal DNA-topo II complex is formed) of a test compound is defined to be the concentration with activity equal to the EC50 of the reference agent, mAMSA. The maximal DNA-topo II complex formed is taken as that equal to that formed at the nearly saturating dose of mAMSA (10 μg/ml).

[1] = system: purified eukaryotic topoisomerase II; conditions: Barrett et al. 1987; cited from earlier work
[2] = system: procaryotic and eucaryotic topoisomerase enzymes; conditions: Jefson et al. 1989; cited from earlier work
[3] = system: DNA topoisomerase II from calf thymus; conditions: Hussy et al. 1986; cited from earlier work
[4] = system: topoisomerase II of fetal calf thymus; conditions: among compared quinolones, Hoshino et al. 1989; cited from earlier work

Compound: CCn1cc(C(=O)O)c(=O)c2cc(F)c(-c3ccncc3)c(F)c21 [CP-67,015, 6,8-difluoro-1-ethyl-7-(4-pyridyl)-1,4-dihydro-4-oxo-3-quinolinecarboxylic acid]
enhancement/induction of DNA cleavage mediated by topoisomerase II (in words) [1]: induced significant DNA cleavage in both the radiolabeled and cold cleavage assays

Compound: Cc1cc(-c2c(F)c(F)c3c(=O)c(C(=O)O)cn4c3c2OC[C@@H]4C)cc(C)n1 [Example 6, (S)-10-(2,6-Dimethyl-4-pyridinyl)-8,9-difluoro-3-methyl-7-oxo-2,3-dihydro-7H-pyrido[1,2,3-de][1,4]benzoxazine-6-carboxylic acid]
EC50 (human topoisomerase II): 50 µM

Compound: Cc1cc(-c2c(F)cc3c(=O)c(C(=O)O)cn4c3c2OC[C@@H]4C)cc(C)n1 [Example 7, (S)-10-(2,6-Dimethyl-4-pyridinyl)-9-fluoro-3-methyl-7-oxo-2,3-dihydro-7H-pyrido[1,2,3-de][1,4]benzoxazine-6-carboxylic acid]
EC50 (human topoisomerase II): 31 µM

Compound: C[C@H]1COc2c(-c3ccncc3)c(F)cc3c(=O)c(C(=O)O)cn1c23 [S-(-)-CP-92,121, (S)-9-fluoro-3-methyl-10-(4-pyridyl)-7-oxo-7H-pyrido[1,2,3-de][1,4]benzoxazine-6-carboxylic acid]
combined activity against procaryotic and eucaryotic topoisomerase enzymes (in words) [2]: combined potent activity

Compound: C[C@H]1COc2c(-c3ccc4ncccc4c3)c(F)cc3c(=O)c(C(=O)O)cn1c23 [S-(-)-CP-100,964, (S)-9-fluoro-3-methyl-10-(6-quinolyl)-7-oxo-7H-pyrido[1,2,3-de][1,4]benzoxazine-6-carboxylic acid]
combined activity against procaryotic and eucaryotic topoisomerase enzymes (in words) [2]: combined potent activity

Compound: O=C(O)c1cn(C2CC2)c2cc(N3CCNCC3)c(F)cc2c1=O [ciprofloxacin, 1-cycloproyl-6-fluoro-7-(1-piperazinyl)-1,4-dihydro-4-oxo-3-quinolinecarboxylic acid]
Ki values of 50% inhibition [3]: 150 µg/mL

Compound: CCn1cc(C(=O)O)c(=O)c2cc(F)c(N3CCNCC3)cc21 [norfloxacin, 1-ethyl-6-fluoro-7-(1-piperazinyl)-1,4-dihydro-4-oxo-3-quinolinecarboxylic acid]
Ki values of 50% inhibition [3]: 300 µg/mL
enhancement/induction of DNA cleavage mediated by topoisomerase II (in words) [1]: not to be potent enhancers of DNA cleavage mediated by topoisomerase II

Compound: CC1COc2c(N3CCN(C)CC3)c(F)cc3c(=O)c(C(=O)O)cn1c23 (centres unmarked) [ofloxacin, 9-fluoro-3-methyl-10-(4-methyl-1-piperazinyl)-7-oxo-2,3-dihydro-7H-pyrido[1,2,3-de][1,4]benzoxazine-6-carboxylic acid]
potency of inhibition of topoisomerase II (in words) [4]: lowest
Ki values of 50% inhibition [3]: 1300 µg/mL

The next lines start with the values.

EC50 (human topoisomerase II): 57 µM
Compound: C[C@H]1COc2c(-c3ccncc3)c(F)cc3c(=O)c(C(=O)O)cn1c23 [1(b), (S)-10-(4-Pyridinyl)-9-fluoro-2,3-dihydro-3-methyl-7-oxo-7H-pyrido[1,2,3-de][1,4]benzoxazine-6-carboxylic acid]

EC50 (human topoisomerase II): 92 µM
Compound: CCc1cc(-c2c(F)cc3c(=O)c(C(=O)O)cn4c3c2OC[C@@H]4C)ccn1 [3(c), (S)-10-(2-Ethyl-4-pyridinyl)-9-fluoro-2,3-dihydro-3-methyl-7-oxo-7H-pyrido[1,2,3-de][1,4]benzoxazine-6-carboxylic acid]

EC50 (human topoisomerase II): 68 µM
Compound: CCc1cc(-c2c(F)cc3c(=O)c(C(=O)O)cn4c3c2OC[C@@H]4C)cc(C)n1 [Example 2(d), (S)-10-(2-Ethyl-6-methyl-4-pyridinyl)-9-fluoro-2,3-dihydro-3-methyl-7-oxo-7H-pyrido[1,2,3-de][1,4]benzoxazine-6-carboxylic acid]

EC50 (human topoisomerase II): 62 µM
Compound: Cc1cc(-c2c(F)cc3c(=O)c(C(=O)O)cn4c3c2[S@@+]([O-])CC4C)cc(C)n1 (stereo partly drawn) [Example 4, (S)-10-(2,6-Dimethyl-4-pyridinyl)-9-fluoro-3-methyl-7-oxo-2,3-dihydro-7H-pyrido[1,2,3-de][1,4]benzothiazine-6-carboxylic acid 1-oxide]
